The target in one data set is HDAC 1 (Homo sapiens, UniProt Q13547). As to the kind of experiment: In vitro HDAC enzyme inhibition, fluorescent deacetylation assay (HDAC1). It is filed as biochemical. The protocol:
(§1) The degree of deacetylation of the acetylated substrate was determined by detecting the changes in the intensity of the fluorescent signal in the 384-well microplate using EnVision® microplate reader, the half inhibitory comcentration IC50 value of the compound inhibitor was used as a reference to evaluate the inhibitory effect of the compound on the histone deacetylase (HDAC). The compound was diluted by DMSO to 2 mM, and then added to 384 compound plate, then the solution was diluted 3 times, 10 gradients and double duplicate wells using a Bravo automated liquid workstation; then 0.15 μL of the compound was transferred from 384 compound plate to 384 assay plate by Echo liquid handler. 1.2 configuration of the assay buffer: the configuration contains 20 mM Hepes, 137 mM NaCl, 2.7 mM KCl, 1 mM MgCl2, 0.05% BSA, 0.5 mM TCEP of 1× assay buffer, each of which is represented by final concentration thereof. The rapidly dissolving histone deacetylase was added to the 1× assay buffer and mixed well. The 1.5× enzyme mixture was added to a 20 μL to 384-well assay plate, mixed by centrifugation, placed in a 23° C. incubator, and the enzyme was incubated with the compound for 20 minutes. The 3× substrate solution was configured by 1× assay buffer, and then mixed well. 10 μL was added to a 384-well assay plate, mixed by centrifugation, and placed in a 23° C. incubator for 90 minutes for reaction. The terminating mixture of trypsin and the positive compound SAHA (Vorinostat, vorinostat) was configured with 1× assay buffer and mixed well. The reaction was terminated by adding 30 μL to a 384-well assay plate, then centrifuged, and placed in a 23° C. incubator for 60 minutes. After termination of the reaction for 60 minutes, the 384-well assay plate was placed on an Envision micro-plate reader and the fluorescence value was read. 1.7 Data analysation: the data was analyzed by using XLfit5 software to calculate the IC50 value of the compound.

For a further data set, the target named is T1, HDAC 6 (Homo sapiens, UniProt Q9UBN7).
T1 sequence (Q9UBN7 1-1215): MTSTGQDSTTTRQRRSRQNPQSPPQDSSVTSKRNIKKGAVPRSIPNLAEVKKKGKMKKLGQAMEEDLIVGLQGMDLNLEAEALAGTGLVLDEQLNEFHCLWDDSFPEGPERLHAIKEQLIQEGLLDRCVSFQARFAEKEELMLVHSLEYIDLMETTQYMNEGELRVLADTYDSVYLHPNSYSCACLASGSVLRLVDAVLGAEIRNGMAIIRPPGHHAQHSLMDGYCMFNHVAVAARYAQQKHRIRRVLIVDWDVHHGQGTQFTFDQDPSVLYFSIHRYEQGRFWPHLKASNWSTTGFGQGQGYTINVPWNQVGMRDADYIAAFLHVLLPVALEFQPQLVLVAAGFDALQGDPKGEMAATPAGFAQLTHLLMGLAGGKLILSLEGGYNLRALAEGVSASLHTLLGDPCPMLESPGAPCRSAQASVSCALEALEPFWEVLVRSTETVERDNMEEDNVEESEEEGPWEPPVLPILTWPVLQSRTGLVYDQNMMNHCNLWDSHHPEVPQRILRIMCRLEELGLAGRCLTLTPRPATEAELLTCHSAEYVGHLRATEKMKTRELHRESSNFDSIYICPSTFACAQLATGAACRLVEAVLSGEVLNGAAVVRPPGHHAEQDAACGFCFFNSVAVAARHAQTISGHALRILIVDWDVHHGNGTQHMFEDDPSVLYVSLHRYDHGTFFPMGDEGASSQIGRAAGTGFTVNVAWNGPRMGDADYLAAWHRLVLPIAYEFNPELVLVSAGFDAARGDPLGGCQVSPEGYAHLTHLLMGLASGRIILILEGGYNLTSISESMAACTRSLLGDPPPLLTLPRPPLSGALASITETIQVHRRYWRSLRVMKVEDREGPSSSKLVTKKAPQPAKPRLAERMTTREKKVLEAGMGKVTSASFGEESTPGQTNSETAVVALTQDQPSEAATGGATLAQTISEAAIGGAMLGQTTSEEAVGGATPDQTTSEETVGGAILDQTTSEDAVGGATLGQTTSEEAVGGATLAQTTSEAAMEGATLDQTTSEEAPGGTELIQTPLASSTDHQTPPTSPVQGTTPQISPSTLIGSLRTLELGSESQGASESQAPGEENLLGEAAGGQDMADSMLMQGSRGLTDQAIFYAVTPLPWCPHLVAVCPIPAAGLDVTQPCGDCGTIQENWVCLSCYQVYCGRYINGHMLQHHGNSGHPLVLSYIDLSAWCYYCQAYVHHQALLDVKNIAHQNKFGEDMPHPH
The data set is described as follows: In vitro HDAC enzyme inhibition, fluorescent deacetylation assay (HDAC6). It counts as biochemical. The protocol:
as §1

Data set [1] can be described thus: Pharmacokinetic evaluation in male beagle dogs. It is filed as in vivo. As to conditions: plasma, male beagle dog. How it is done:
Purpose of the experiment: test the compound's pharmacokinetics in male beagle dogs
Experimental materials: Beagle (male, 6-15 kg, 6 months-4 age, Marshall Bioresources, Beijing, China)
The Beagle's pharmacokinetic characteristics after oral administration of the compound were tested by a standard scheme. In the experiment, the candidate compound was formulated into a uniform suspension and administered to a beagle dog for single oral administration. Oral menstruum was formed by a certain proportion of polyethylene glycol-polyoxyethylene castor oil aqueous solution. Blood samples within 24 hours was collected, then centrifuged at 3000 g for 10 minutes, the supernatant was separated to obtain plasma samples, 30 μL of plasma samples was added into 300 μL of internal standard acetonitrile solution to precipitate protein, 30 μL of supernatant was obtained after vortex and centrifugation, and then equal volume of water was added, followed by vortex and centrifugation for another time to collect the supernatant, and the plasma concentration was quantitatively analyzed by LC-MS/MS analysis, and the pharmacokinetic parameters such as peak concentration, peak-reached time, half-life, and area under the administrating curve were calculated.

Each structure is given as a SMILES string.

Sequence of HDAC 1 (Q13547 whole entry, species assumed): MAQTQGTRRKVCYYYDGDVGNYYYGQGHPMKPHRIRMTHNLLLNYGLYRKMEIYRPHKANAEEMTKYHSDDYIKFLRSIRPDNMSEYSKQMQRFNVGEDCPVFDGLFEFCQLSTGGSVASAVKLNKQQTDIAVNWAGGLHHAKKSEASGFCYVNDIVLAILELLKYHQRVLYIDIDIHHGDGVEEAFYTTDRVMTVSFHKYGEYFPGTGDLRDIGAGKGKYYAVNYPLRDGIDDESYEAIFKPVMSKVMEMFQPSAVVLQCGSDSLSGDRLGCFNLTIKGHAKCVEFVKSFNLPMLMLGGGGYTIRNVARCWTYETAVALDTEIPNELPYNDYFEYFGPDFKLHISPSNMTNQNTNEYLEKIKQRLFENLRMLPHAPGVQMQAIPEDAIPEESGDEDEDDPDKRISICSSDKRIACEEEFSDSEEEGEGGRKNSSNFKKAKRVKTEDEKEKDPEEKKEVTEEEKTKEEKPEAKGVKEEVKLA

Take `O=C(NO)c1ccc(Cn2ccc(C3(c4ccc(F)cc4)CCCO3)cc2=O)cc1` (single isomer, unassigned) [Embodiment5]: the IC50 is 50 to 200 nM against HDAC 1 and ≤ 10 nM against HDAC 6.
Taken in the same sequence, the figures for `O=C(NO)c1ccc(Cn2ccc(C3(c4ccc(F)cc4)OCCO3)cc2=O)cc1` [Embodiment16] were 50 to 200 nM and ≤ 10 nM.
The corresponding values for `O=C(NO)c1ccc(Cn2ccc(C3(c4ccc(F)cc4)CCCCO3)cc2=O)cc1` (centres unmarked) [Embodiment15] are 50 to 200 nM and ≤ 10 nM.
The corresponding values for `O=C(NO)c1ccc(Cn2ccc(C3(c4ccc(F)cc4)CCO3)cc2=O)cc1` (centres unmarked) [Embodiment12] are 50 to 200 nM and ≤ 10 nM.
With `O=C(NO)c1ccc(Cn2ccc(C3(c4ccncc4)CCCO3)cc2=O)cc1` (centres unmarked) [Embodiment19], the IC50 was 50 to 200 nM at HDAC 1 and ≤ 10 nM against HDAC 6.
As to `CC(C)C1(c2ccn(Cc3ccc(C(=O)NO)cc3)c(=O)c2)CCCO1` (centres unmarked) [Embodiment1], the IC50 against HDAC 1 is > 200 nM; against HDAC 6, ≤ 10 nM.
Turning to `O=C(NO)c1ccc(CNC(=O)c2ccc(C3(c4ccc(F)cc4)CCCO3)cc2)cc1` (single isomer, unassigned) [Embodiment22], the IC50 at HDAC 1 was 50 to 200 nM; against HDAC 6 it was ≤ 10 nM.
With `O=C(NO)c1ccc(Nc2ccc(C3(c4ccc(F)cc4)CCCO3)cc2)cc1` (centres unmarked) [Embodiment24], the 50% inhibitory concentration (IC50) against HDAC 1 is > 200 nM; at HDAC 6, 10 to 50 nM.
The corresponding values for `O=C(NO)c1ccc(Cn2ccc(C3(c4ccc(F)cc4)COCCO3)cc2=O)cc1` (centres unmarked) [Embodiment17] are 50 to 200 nM and ≤ 10 nM.
For the molecule `O=C(NO)c1ccc(Cn2ccc(C3(c4ccc(F)cc4)CCCO3)cc2=O)cn1` (centres unmarked) [Embodiment9], the half-inhibitory concentration (IC50) at HDAC 1 was > 200 nM; against HDAC 6, 50 to 200 nM.
As to `CC1(c2ccn(Cc3ccc(C(=O)NO)cc3)c(=O)c2)CCCO1` (centres unmarked) [Embodiment2], the IC50 on HDAC 1 is > 200 nM; against HDAC 6 it was ≤ 10 nM.
For `O=C(NO)c1ccc(CNC(=O)c2ccc(C3(c4ccc(F)cc4)CCCO3)cn2)cc1` (centres unmarked) [Embodiment26], the IC50 was 50 to 200 nM against HDAC 1 and ≤ 10 nM against HDAC 6. Further, in data set [1] (oral, read-out: Half-life T1/2 (converted)), the half-life is 2.14 h. In data set [1] (single oral administration, read-out: Integrated concentration AUC), the AUC was 13.3 µM·h. The bioavailability in data set [1] (single oral administration, read-out: bioavailability F (%)) turned out to be 53.1%. Further, the clearance in data set [1] (read-out: Clearance rate) stood at 16 mL/min/kg.
As for `O=C(NO)c1ccc(CNc2ccc(C3(c4ccc(F)cc4)CCCO3)cc2)cc1` (centres unmarked) [Embodiment23], the IC50 against HDAC 1 was > 200 nM; against HDAC 6, 10 to 50 nM.
On to `O=C(NO)c1ccc(Cn2ccc(C3(c4ccc(F)cc4F)CCCO3)cc2=O)cc1` (centres unmarked) [Embodiment6], for which the IC50 against HDAC 1 is 50 to 200 nM; on HDAC 6, ≤ 10 nM.
As to `O=C(NO)c1ccc(NC(=O)c2ccc(C3(c4ccc(F)cc4)CCCO3)cc2)cc1` (centres unmarked) [Embodiment25], the IC50 is > 200 nM against HDAC 1 and 10 to 50 nM at HDAC 6.
For `O=C(NO)c1ccc(Cn2ccc(C3(c4ccc(F)cc4)CCO3)c(F)c2=O)cc1` (centres unmarked) [Embodiment13], the IC50 was 50 to 200 nM on HDAC 1 and ≤ 10 nM against HDAC 6.
With `O=C(NO)c1ccc(Cn2ccc(C3(c4ccc(F)cc4)CCCO3)cc2=O)cc1` (centres unmarked) [Embodiment3], the IC50 is 50 to 200 nM against HDAC 1 and ≤ 10 nM against HDAC 6.
For the molecule `O=C(NO)c1ccc(CNC(=O)c2ccc(C3(c4ccc(F)cc4)CCCO3)cc2)cc1` (single isomer, unassigned) [Embodiment21], the 50% inhibitory concentration (IC50) against HDAC 1 was 50 to 200 nM; on HDAC 6, ≤ 10 nM.
For the molecule `O=C(NO)c1ccc(Cn2ccc(C3(c4ccc(F)cc4)CCCO3)cc2=O)cc1` (single isomer, unassigned) [Embodiment4], the IC50 on HDAC 1 was 50 to 200 nM; against HDAC 6, ≤ 10 nM.
As for `O=C(NO)c1cnc(Cn2ccc(C3(c4ccc(F)cc4)CCCO3)cc2=O)nc1` (centres unmarked) [Embodiment8], the IC50 against HDAC 1 is > 200 nM; at HDAC 6, ≤ 10 nM.
Regarding `O=C(NO)c1ccc(Cn2ccc(C3(c4ccccn4)CCCO3)cc2=O)cc1` (centres unmarked) [Embodiment18], the results for the IC50 against HDAC 1 and at HDAC 6 were 50 to 200 nM and ≤ 10 nM, respectively.
In the case of `O=C(NO)c1ccc(Cn2ccc(C3(c4c(F)cc(F)cc4F)CCCO3)cc2=O)cc1` (centres unmarked) [Embodiment10], the IC50 against HDAC 1 was > 200 nM; against HDAC 6, 10 to 50 nM.
With `O=C(NO)c1ccc(Cn2ccc(C3(c4ccc(F)cc4)CCCO3)c(F)c2=O)cc1` (centres unmarked) [Embodiment14], the IC50 against HDAC 1 was 50 to 200 nM; on HDAC 6, ≤ 10 nM.
On to `O=C(NO)c1ccc(Cn2ccc(C3(c4ccc(F)cc4)CCCO3)cc2=O)nc1` (centres unmarked) [Embodiment7], for which the IC50 against HDAC 1 was > 200 nM; on HDAC 6 it was ≤ 10 nM.
As for `O=C(NO)c1ccc(CNC(=O)c2ccc(C3(c4ccc(F)cc4)CCCO3)cc2)cc1` (centres unmarked) [Embodiment20], the 50% inhibitory concentration (IC50) is 50 to 200 nM against HDAC 1 and ≤ 10 nM on HDAC 6.
The corresponding values for `O=C(NO)c1ccc(Cn2cc(F)c(C3(c4ccc(F)cc4)CCCO3)cc2=O)cc1` (centres unmarked) [Embodiment11] are 50 to 200 nM and ≤ 10 nM.

(Values after patent publication US10745389B2, “HDAC6 selective inhibitors, preparation method therefor, and application thereof” (CSTONE PHARMACEUTICALS (SUZHOU) CO., LTD., priority 2017, dated 2020).)
